Results on 2 compounds are retold here after PMC2719696, “Kinetics and Cellular Site of Glycolipid Loading Control the Outcome of Natural Killer T Cell Activation” (Immunity, 2009).

This experiment deals with T1, mCD1d.WT (Mus musculus, UniProt P11609).
T1 construct: expressed in transfected cells; host or cells: A20 B lymphoma cells (provided by M. Kronenberg)
T1 sequence (P11609 22-336): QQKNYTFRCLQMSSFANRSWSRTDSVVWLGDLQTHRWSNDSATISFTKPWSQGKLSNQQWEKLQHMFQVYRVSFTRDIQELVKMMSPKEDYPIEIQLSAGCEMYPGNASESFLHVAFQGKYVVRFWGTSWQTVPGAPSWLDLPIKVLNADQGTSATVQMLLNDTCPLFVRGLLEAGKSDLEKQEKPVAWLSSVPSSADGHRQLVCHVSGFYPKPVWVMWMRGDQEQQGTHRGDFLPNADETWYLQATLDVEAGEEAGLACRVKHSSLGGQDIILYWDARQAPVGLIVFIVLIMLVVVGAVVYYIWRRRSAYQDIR
T1 sequence (P01887 21-119 partner): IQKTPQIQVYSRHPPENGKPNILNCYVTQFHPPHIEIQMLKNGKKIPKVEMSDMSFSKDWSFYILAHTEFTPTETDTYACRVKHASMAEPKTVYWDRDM
Kind of experiment: iNKT hybridoma DN3A4.1-2 stimulation with A20 cells expressing wild-type mCD1d, IL-2 release. The class given is cell-based. Particulars: A20 B lymphoma cells expressing mCD1d.WT; compared to all Th2 cell-type cytokine-biasing analogs. The procedure: Figure 4 Cell Surface versus Intracellular Loading of mCD1d with Different αGalCer Analogs (A) On the left, surface accumulation of CD1d-αGalCer complexes was studied with JAWS II cells harvested after incubation with the indicated glycolipids for 1, 4, or 16 hr and then stained without permeabilization with mAb L363 (red). Cells were then fixed, stained with DAPI for nuclei visualization (blue), and analyzed by confocal microscopy. On the right, the intracellular formation and trafficking of CD1d-αGalCer complexes were analyzed by treatment of JAWS II cells with αGalCer analogs for 1, 4, and 16 hr followed by fixation and permeabilization. The cells were stained for CD1d-αGalCer complexes (L363, red), late endosomes and lysosomes (anti-LAMP-1, green), and nuclei (DAPI, blue). Results are representative of three separate experiments. The scale bar represents 10 μm. […] Supernatant concentrations of IL-2 release were determined after 12 hr. […]
For in vitro stimulation, murine iNKT hybridomas at 5 × 10^4 cells/well in 96-well plates were stimulated with an equal number of either JAWS II cells or transfected A20 cells in complete medium with glycolipids for 12 hr at 37°C, and levels of murine IL-2 secretion were determined. […] Subsequently the levels of IL-4, IL-13, and IFN-γ in culture supernatants were quantified by capture ELISA. […]

Consider `CCCCCCCCCCCCCCCCCCCCCCCC(=O)NC(COC1OC(CO)C(O)C(O)C1O)C(O)C(O)CCCCCCCCCCCCCC` (centres unmarked) [αGalCer-C24:0], for which the “relative potency at activating iNKT cells” value is “significantly more potent”. Consider `CCCCCCCCCCCCCCCCCCCCCCCCCC(=O)NC(COC1OC(CO)C(O)C(O)C1O)C(O)C(O)CCCCCCCCCCCCCC` (centres unmarked) [αGalCer-C26:0, reference compound], for which the “relative potency at activating iNKT cells” value is “significantly more potent”.
